Source: ChEMBL document CHEMBL5390281
Calls of active or inactive are those of the source. The calls are words filed in the database; no cut-off is given here.

Assays:
Type in all cases: functional, organism-based
Mus musculus [1] = assay: Antinociceptive activity against thermal stimulated-induced persistent inflammation model of Swiss mouse assessed as increased tail flick latency at 5 mg/kg, ip pretreated with compound for 40 mins followed by thermal induction and measured after 2 hrs by tail flick test; conditions: time 160.0 min
Mus musculus [2] = assay: Antinociceptive activity against thermal stimulated-induced persistent inflammation model of Swiss mouse assessed as increased tail flick latency at 5 mg/kg, ip pretreated with compound for 40 min followed thermal stimulation and measured after 3 days in the presence of naloxone by tail flick test; conditions: time 4360.0 min
Mus musculus [3] = assay: Antinociceptive activity against noxious cold stimulated-persistent inflammation model of Swiss mouse assessed as reduction in pain like behavior at 5 mg/kg, ip pretreated with compound for 40 min followed by noxious cold stimulation and measured after 3 days in the presence of naloxone by cold plate test; conditions: time 4360.0 min
Mus musculus [4] = assay: Antinociceptive activity in Swiss mouse assessed as reduction in pain like behavior of mouse in second phase at 5 mg/kg, ip pretreated for 40 min followed by formalin challenge and measured after 30 min; conditions: time 70.0 min
Mus musculus [5] = assay: Antinociceptive activity in Swiss mouse assessed as reduction in pain like behavior of mouse in first phase at 5 mg/kg, ip pretreated for 40 min followed by formalin challenge and measured after 30 min; conditions: time 70.0 min
Mus musculus [6] = assay: Antinociceptive activity against noxious cold stimulated-induced persistent inflammation model of Swiss mouse assessed as reduction in pain like behavior at 5 mg/kg, ip pretreated with compound for 40 min followed by noxious cold stimulation and measured after 2 hrs by cold plate test; conditions: time 160.0 min
Mus musculus [7] = assay: Antiinflammatory activity against CFA-induced persistent inflammation model of Swiss mouse assessed as prevention in paw edema formation at 2 mg/kg, ip incubated for 40 mins by plethysmometer analysis
Mus musculus [8] = assay: Antinociceptive activity against CFA-induced persistent inflammation model of Swiss mouse assessed as prevention in CFA-induced allodynia at 2 mg/kg, ip incubated for 40 mins by von frey test

| SMILES | Activity (Mus musculus [1]) | Activity (Mus musculus [2]) | Activity (Mus musculus [3]) | Activity (Mus musculus [4]) | Activity (Mus musculus [5]) | Activity (Mus musculus [6]) | Activity (Mus musculus [7]) | Activity (Mus musculus [8]) |
| --- | --- | --- | --- | --- | --- | --- | --- | --- |
| CN1CC[C@]23c4c5ccc(O)c4O[C@H]2[C@@H](O)C=C[C@H]3[C@H]1C5 | Active | inactive | inactive | Active | Active | Active | – | – |
| COc1ccc2c(c1)c(CC(=O)O)c(C)n2C(=O)c1ccc(Cl)cc1 | – | – | – | Active | inactive | – | – | – |
| C[C@@H]1C[C@H]2[C@@H]3CCC4=CC(=O)C=C[C@]4(C)[C@@]3(F)[C@@H](O)C[C@]2(C)[C@@]1(O)C(=O)CO | – | – | – | – | – | – | Active | Active |
